Results: US10793568B2, “Hormone receptor modulators for treating metabolic conditions and disorders” (ARDELYX, INC., priority 2016, dated 2020)

Tests used:
[1] = biological target: ligand binding domain of human FXR (Homo sapiens (Human), UniProt Q96RI1); experiment: FXR ligand binding assay (LanthaScreen TR-FRET, SRC2-2 peptide recruitment); conditions: for pEC50 / EC50: -log EC50, concentration required to produce 50% activation; for Emax: extent of activation relative to GW4064, read-out: % Efficacy
Sequence of ligand binding domain of human FXR (Q96RI1 262-486): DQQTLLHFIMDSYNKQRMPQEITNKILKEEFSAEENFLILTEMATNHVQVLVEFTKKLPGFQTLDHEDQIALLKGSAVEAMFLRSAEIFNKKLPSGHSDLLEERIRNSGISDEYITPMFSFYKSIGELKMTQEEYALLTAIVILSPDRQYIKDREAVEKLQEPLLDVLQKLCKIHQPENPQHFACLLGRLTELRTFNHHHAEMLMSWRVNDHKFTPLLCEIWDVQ

[2] = biological target: human Farnesoid X receptor ligand-binding domain/Gal4 DNA binding domain chimera (Homo sapiens (Human), UniProt Q96RI1); experiment: Cell-based assay of FXR activation (FXR-UAS-bla HEK 293T beta-lactamase reporter); conditions: cellular FXR beta-lactamase reporter assay; for Emax: HEK-293T, extent of activation relative to GW4064, read-out: % Efficacy; for EC50: FXR-UAS-bla HEK 293T cells, 16 h, pEC50 = -log EC50
Sequence of human Farnesoid X receptor ligand-binding domain/Gal4 DNA binding domain chimera (Q96RI1 262-486, stated change not applied): as the sequence (Q96RI1 262-486) above
Sequence of human Farnesoid X receptor ligand-binding domain/Gal4 DNA binding domain chimera (P04386 1-147 partner): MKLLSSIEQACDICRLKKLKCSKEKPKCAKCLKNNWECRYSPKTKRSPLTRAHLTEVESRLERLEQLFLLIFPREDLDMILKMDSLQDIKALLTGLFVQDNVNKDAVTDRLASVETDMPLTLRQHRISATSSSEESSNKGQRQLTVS
Protocol: FXR activation was measured using a cell line and procedure obtained from Life Technologies (Cat # K1691). FXR-UAS-bla HEK 293T cells contain a human Farnesoid X receptor ligand-binding domain/Gal4 DNA binding domain chimera stably integrated into the CellSensor® UAS-bla HEK 293T cell line. The CellSensor® UAS-bla HEK 293T contains a beta-lactamase reporter gene under control of a UAS response element stably integrated into HEK 293T cells. Activation of FXR by bound ligands results in transcriptional activation of the beta-lactamase reporter gene, which is detected via assay of beta-lactamase activity.
Cells are harvested and diluted into assay medium containing phenol red-free DMEM supplemented with 2% Charcoal-stripped FBS, pyruvate, non-essential amino acids. Cells are then transferred to a 384 well assay plate. Test compounds are dissolved in DMSO and a 3-fold serial dilution series is generated, then further diluted into assay medium. Compounds in assay medium are added to cells in the 384 well plate and allowed to incubate 16 h at 37 C in the presence of 5% CO2.
A FRET-based […] is loaded into cells as its acetomethoxy ester. Intracellular esterases liberate free CCF4, a cephalosporin core linking 7-hydroxycoumarin to fluorescein. In the presence of beta-lactamase activity produced in the presence of FXR agonists, cleavage of CCF4 spatially separates the two dyes and disrupts FRET, so that exciting the coumarin at 409 nm now produces a blue fluorescence signal at 447 nm. The change in FRET signal is plotted against the test compound concentration and fit to a 3-parameter logistical equation. The concentration required to produce 50% activation is expressed as pEC50 (−log EC50), and the extent of activation is expressed relative to GW4064 as % activation.

Structure (SMILES)	pEC50 [1]	Emax [1]	Emax [2]	EC50 [2]	EC50 [1]
O=C(O)c1cc(C(F)(F)F)c2nc(N3C[C@@H]4C[C@H]3C[C@H]4OCc3c(-c4c(Cl)cccc4Cl)noc3C3CC3)sc2c1 [Compound I-15, 2-[(1S,4S,5R)-5-{[5-cyclopropyl-3-(2,6-dichlorophenyl)-1,2-oxazol-4-yl]methoxy}-2-azabicyclo[2.2.1]heptan-2-yl]-4-(trifluoromethyl)-1,3-benzothiazole-6-carboxylic acid]	7.8	150%	104%	0.251 nM	–
O=C(O)c1cc(OC(F)(F)F)c2nc(N3C[C@@H]4C[C@H]3C[C@H]4OCc3c(-c4c(Cl)cccc4Cl)noc3C3CC3)sc2c1 [Compound I-16]	8.8	174%	109%	0.0398 nM	–
O=C(O)c1cc(OCC(F)(F)F)c2nc(N3C[C@@H]4C[C@H]3C[C@H]4OCc3c(-c4c(Cl)cccc4Cl)noc3C3CC3)sc2c1 [Compound I-17, 2-[(1S,4S,5R)-5-{[5-cyclopropyl-3-(2,6-dichlorophenyl)-1,2-oxazol-4-yl]methoxy}-2-azabicyclo[2.2.1]heptan-2-yl]-4-(2,2,2-trifluoroethoxy)-1,3-benzothiazole-6-carboxylic acid]	8.2	162%	102%	0.1 nM	–
CCOc1cc(C(=O)O)cc2sc(N3C[C@@H]4C[C@H]3C[C@H]4OCc3c(-c4c(Cl)cccc4Cl)noc3C3CC3)nc12 [Compound I-18, 2-[(1S,4S,5R)-5-{[5-cyclopropyl-3-(2,6-dichlorophenyl)-1,2-oxazol-4-yl]methoxy}-2-azabicyclo[2.2.1]heptan-2-yl]-4-ethoxy-1,3-benzothiazole-6-carboxylic acid]	8.8	135%	109%	0.1 nM	–
O=C(O)c1cc(F)c2nc(N3C[C@@H]4C[C@H]3C[C@H]4OCc3c(-c4ccccc4C(F)(F)F)noc3C3CC3)sc2c1 [Compound I-19, 2-[(1S,4S,5R)-5-([5-cyclopropyl-3-[2-(trifluoromethyl)phenyl]-1,2-oxazol-4-yl]methoxy)-2-azabicyclo[2.2.1]heptan-2-yl]-4-fluoro-1,3-benzothiazole-6-carboxylic Acid]	8	178%	114%	2 nM	–
O=C(O)c1cc(OC(F)(F)F)c2nc(N3C[C@@H]4C[C@H]3C[C@H]4OCc3c(-c4ccccc4C(F)(F)F)noc3C3CC3)sc2c1 [Compound I-20, 2-[(1S,4S,5R)-5-({5-cyclopropyl-3-[2-(trifluoromethyl)phenyl]-1,2-oxazol-4-yl}methoxy)-2-azabicyclo[2.2.1]heptan-2-yl]-4-(trifluoromethoxy)-1,3-benzothiazole-6-carboxylic Acid]	8.4	191%	113%	0.631 nM	–
O=C(O)c1cc(F)c2nc(N3C[C@@H]4C[C@H]3C[C@H]4OCc3c(C4CCCCC4)noc3C3CC3)sc2c1 [Compound I-21, 2-[(1S,4S,5R)-5-[(3-cyclohexyl-5-cyclopropyl-1,2-oxazol-4-yl)methoxy]-2-azabicyclo[2.2.1]heptan-2-yl]-4-fluoro-1,3-benzothiazole-6-carboxylic Acid]	–	123%	110%	79.4 nM	100 nM
O=C(O)c1cc(OC(F)(F)F)c2nc(N3C[C@@H]4C[C@H]3C[C@H]4OCc3c(C4CCCCC4)noc3C3CC3)sc2c1 [Compound I-22, 2-[(1S,4S,5R)-5-[(3-cyclohexyl-5-cyclopropyl-1,2-oxazol-4-yl)methoxy]-2-azabicyclo[2.2.1]heptan-2-yl]-4-(trifluoromethoxy)-1,3-benzothiazole-6-carboxylic Acid]	–	85%	113%	126 nM	316 nM
O=C(O)c1cc(OC(F)(F)F)c2nc(N3C[C@@H]4C[C@H]3C[C@H]4OCc3c(C4CCOCC4)noc3C3CC3)sc2c1 [Compound I-23, 2-[(1S,4S,5R)-5-{[5-cyclopropyl-3-(oxan-4-yl)-1,2-oxazol-4-yl]methoxy}-2-azabicyclo[2.2.1]heptan-2-yl]-4-(trifluoromethoxy)-1,3-benzothiazole-6-carboxylic Acid]	5.5	85%	100%	631 nM	–
O=C(O)c1cc(F)c2nc(N3C[C@@H]4C[C@H]3C[C@H]4OCc3c(-c4c(Cl)cccc4Cl)noc3C3(F)CC3)sc2c1 [Compound I-24, 2-[(1S,4S,5R)-5-{[3-(2,6-dichlorophenyl)-5-(1-fluorocyclopropyl)-1,2-oxazol-4-yl]methoxy}-2-azabicyclo[2.2.1]heptan-2-yl]-4-fluoro-1,3-benzothiazole-6-carboxylic Acid]	7.9	180%	102%	0.631 nM	–
O=C(O)c1cc(OC(F)(F)F)c2nc(N3C[C@@H]4C[C@H]3C[C@H]4OCc3c(-c4c(Cl)cccc4Cl)noc3C3(F)CC3)sc2c1 [Compound I-25, 2-[(1S,4S,5R)-5-{[3-(2,6-dichlorophenyl)-5-(1-fluorocyclopropyl)-1,2-oxazol-4-yl]methoxy}-2-azabicyclo[2.2.1]heptan-2-yl]-4-(trifluoromethoxy)-1,3-benzothiazole-6-carboxylic Acid]	8.4	172%	102%	0.398 nM	–
Fc1cc(-c2nn[nH]n2)cc2sc(N3C[C@@H]4C[C@H]3C[C@H]4OCc3c(-c4c(Cl)cccc4Cl)noc3C3CC3)nc12 [Compound I-26, 2-[(1S,4S,5R)-5-{[5-cyclopropyl-3-(2,6-dichlorophenyl)-1,2-oxazol-4-yl]methoxy}-2-azabicyclo[2.2.1]heptan-2-yl]-4-fluoro-6-(2H-1,2,3,4-tetrazol-5-yl)-1,3-benzothiazole]	8.4	137%	106%	25.1 nM	–
FC(F)(F)Oc1cc(-c2nn[nH]n2)cc2sc(N3C[C@@H]4C[C@H]3C[C@H]4OCc3c(-c4c(Cl)cccc4Cl)noc3C3CC3)nc12 [Compound I-27, 2-[(1S,4S,5R)-5-{[5-cyclopropyl-3-(2,6-dichlorophenyl)-1,2-oxazol-4-yl]methoxy}-2-azabicyclo[2.2.1]heptan-2-yl]-4-trifluoromethoxy-6-(2H-1,2,3,4-tetrazol-5-yl)-1,3-benzothiazole]	–	130%	94%	2 nM	–
CS(=O)(=O)NC(=O)c1cc(F)c2nc(N3C[C@@H]4C[C@H]3C[C@H]4OCc3c(-c4c(Cl)cccc4Cl)noc3C3CC3)sc2c1 [Compound I-28, 2-[(1S,4S,5R)-5-{[5-cyclopropyl-3-(2,6-dichlorophenyl)-1,2-oxazol-4-yl]methoxy}-2-azabicyclo[2.2.1]heptan-2-yl]-4-fluoro-N-methanesulfonyl-1,3-benzothiazole-6-carboxamide]	8.9	153%	122%	2 nM	–
CCCS(=O)(=O)NC(=O)c1cc(F)c2nc(N3C[C@@H]4C[C@H]3C[C@H]4OCc3c(-c4c(Cl)cccc4Cl)noc3C3CC3)sc2c1 [Compound I-29, 2-[(1S,4S,5R)-5-{[5-cyclopropyl-3-(2,6-dichlorophenyl)-1,2-oxazol-4-yl]methoxy}-2-azabicyclo[2.2.1]heptan-2-yl]-4-fluoro-N-(propane-1-sulfonyl)-1,3-benzothiazole-6-carboxamide]	7.8	194%	118%	1.58 nM	–
O=C(NS(=O)(=O)C1CC1)c1cc(F)c2nc(N3C[C@@H]4C[C@H]3C[C@H]4OCc3c(-c4c(Cl)cccc4Cl)noc3C3CC3)sc2c1 [Compound I-30, N-(cyclopropanesulfonyl)-2-[(1S,4S,5R)-5-{[5-cyclopropyl-3-(2,6-dichlorophenyl)-1,2-oxazol-4-yl]methoxy}-2-azabicyclo[2.2.1]heptan-2-yl]-4-fluoro-1,3-benzothiazole-6-carboxamide]	8.6	160%	114%	2.51 nM	–
CS(=O)(=O)NC(=O)c1cc(F)c2nc(N3C[C@@H]4C[C@H]3C[C@H]4OC(=O)c3c(-c4c(Cl)cccc4Cl)noc3C3CC3)sc2c1 [Compound I-31, (1S,4S,5R)-2-[4-fluoro-6-(methanesulfonylcarbamoyl)-1,3-benzothiazol-2-yl]-2-azabicyclo[2.2.1]heptan-5-yl 5-cyclopropyl-3-(2,6-dichlorophenyl)-1,2-oxazole-4-carboxylate]	7.4	117%	115%	158 nM	–
